Tests used:
C57BL6 mice = assay: CFA inflammatory pain model, Blackbox behavioral analysis of hind paw usage; type: in vivo; conditions: for reversal of CFA-induced mechanical hypersensitivity: beginning at 24 hours after intraplantar administration
Text: To evaluate the effect of different treatments on voluntary pain-related behaviors in mice, we used the Blackbox behavioral analysis system, as previously described (Zhang, et al., PAIN, 2022 Dec. 1; 163 (12): 2326-2336, incorporated herein by reference in its entirety).
• Male and female C57BL6 mice (n=5 per group) • Complete Freund's Adjuvant (CFA, Sigma) • Saline • PBS • DMSO • Compound 1 • Compound 2 • Syringes (for injections) • Hargreaves apparatus (for thermal pain testing) • Blackbox behavioral analysis setup
• Divide mice into groups (n=10 per group). • Inject 20 μL of CFA or saline into the right hind paw of each mouse.
• 24 hours after CFA injection, randomly assign mice to the following groups: • Control Group: PBS+PBS • CFA+PBS Group • CFA+DMSO Group • CFA+Compound 1 Group • CFA+Compound 2 Group
• Inject the designated treatment (PBS (20 μL), DMSO (20 μL), Compound 1 (1 μM in 20 μL PBS), or Compound 2 (1 μM in 20 μL DMSO)) into the plantar right paw of each mouse according to their assigned group.
• Perform Blackbox behavioral analysis and Hargreaves test at the following time points after drug injection: 1 hour, 3 hours, 6 hours, and 24 hours.
• Blackbox Behavioral Analysis: • Place each mouse in the Blackbox apparatus for 10 minutes. • Record and analyze behaviors indicative of pain or discomfort (e.g., grooming, paw licking, flinching).
• Record the data for each mouse at each time point. • Compare the results across different groups to assess the effects of the treatments on pain response.
This protocol outlines the steps to assess the impact of different treatments on pain response in mice using Blackbox behavioral analysis. Mice are injected with CFA or saline, followed by treatment with Compound 1 or Compound 2, and negative controls using vehicle (PBS or DMSO) alone.
• 1. Control Group: PBS+PBS • 2. CFA+PBS Group • 3. CFA+DMSO Group • 4. CFA+Compound 1 Group • 5. CFA+Compound 2 Group
• 1 hour after drug injection • 3 hours after drug injection • 6 hours after drug injection • 24 hours after drug injection Precise timing and consistent handling throughout the experiment were utilized to maintain the validity of the results.
Effect of Compound 1. Eight-week-old male and female mice (n=5 mice/group) were injected with CFA (20 μL; intradermal) or saline (20 μL) into the right hind paw. Left (contralateral) hindpaw luminance (FIG. 3A) and ratio of time (FIG. 3B), as well as right hindpaw luminance (FIG. 4A) and ratio of time (FIG. 4B), were assessed as surrogates for mechanical pain hypersensitivity at 1-, 3-, 6-, and 24-hours post-treatment.
Data were analyzed using a two-way ANOVA to assess the effects of CFA injection and subsequent treatments on hindpaw usage and thermal pain hypersensitivity. Post-hoc comparisons were performed using Dunnett's test to identify significant differences between treatment groups.
Effect of Compound 2. Eight-week-old male and female mice (n=5 mice/group) were injected with CFA (20 μL; intradermal) or saline (20 μL) into the right hind paw. Left (contralateral) hind paw luminance (FIG. 5A) and ratio of time (FIG. 5B), as well as right hindpaw luminance (FIG. 6A) and ratio of time (FIG. 6B), were assessed as a readout of mechanical pain hypersensitivity at 1-, 3-, 6-, and 24-hours post-treatment.
Data were analyzed using a two-way ANOVA to assess the effects of CFA injection and subsequent treatments on hindpaw usage (mechanical hypersensitivity). Post-hoc comparisons were performed using Dunnett's test to identify significant differences between treatment groups.

[1] = tested on: cultured dorsal root ganglion (DRG) neurons; assay: Calcium flux in cultured DRG neurons (Fura-2AM calcium imaging); type: cell-based, mice
Experimental: Methods: Assessment of Compound 1 Induced Calcium Flux in Cultured DRG Neurons To evaluate the effect of Compound 1 and Compound 2 on calcium flux in cultured dorsal root ganglion (DRG) neurons isolated from 8-week-old male mice, the following protocols were performed:
• 8-week-old C57BL6 male mice • Fura-2AM (calcium indicator dye) • Compound 1 (at concentrations of 1 μM and 10 μM) • Compound 2 (at concentrations of 1 μM and 10 μM) • ATP (P2X3R agonist, 10 μM) • Capsaicin (TRPV1 ligand, 10 μM) • KCl (50 mM) • Calcium imaging setup (calcium microscope)
• Euthanize 8-week-old male mice according to ethical guidelines. • Harvest the dorsal root ganglia (DRG) from the mice.
• Culture the DRG neurons in appropriate growth media for 24 hours. 3. […]
• Measure and record the average calcium flux (A). • Determine the percentage of responding neurons, identifying responding neurons as those with an f340/f380 fluorescence ratio >10% (B).
Eight-week-old C57BL6 male mice were euthanized, DRG harvested, and neurons cultured for 24 hours. The neurons were then loaded with Fura-2AM, a calcium-responsive dye, and single-neuron calcium flux was recorded by calcium microscopy. […] Average calcium flux (FIG. 1A) and the percentage (FIG. 1B) of responding neurons (identified as f340/f380>10% fluorescence) are shown. […]

[2] = Compound 1, 1 μM in 20 μL PBS, plantar right paw, 24 hours after CFA, 1, 3, 6, 24 hours post-treatment

SMILES | CFA-induced durable reduction of right paw usage (C57BL6 mice; [2]) | left (contralateral) paw usage after CFA in the right paw, compared to control mice (C57BL6 mice; [2]) | reversal of CFA-induced mechanical hypersensitivity (C57BL6 mice) | calcium flux / activation of DRG neurons (interpretation) [1] | left (contralateral) paw usage after CFA in the right paw, compared to control mice (C57BL6 mice; Compound 2, 1 μM in 20 μL DMSO, plantar right paw, 24 hours after CFA, 1, 3, 6, 24 hours post-treatment) | CFA-induced durable reduction of right (injured) paw usage (C57BL6 mice; Compound 2, 1 μM in 20 μL DMSO, plantar right paw, effect beginning 24 hours after compound administration)
CCN(CC)C(=O)[C@@H]1C=C2c3cccc4[nH]cc(c34)C[C@H]2[N+](C)(CC)C1 (stereo partly drawn) [Compound 1, (6aR,9R)-9-(diethylcarbamoyl)-7-ethyl-7-methyl-4,6,6a,7,8,9-hexahydroindolo[4,3-fg]quinolin-7-ium Iodide] | partly reduced | did not change | partial reversal | produced calcium flux |  | 
CCCCCC[N+]1(C)C[C@H](C(=O)N(CC)CC)C=C2c3cccc4[nH]cc(c34)C[C@H]21 (stereo partly drawn) [Compound 2, (6aR,9R)-9-(diethylcarbamoyl)-7-hexyl-7-methyl-4,6,6a, 7,8,9-hexahydroindolo[4,3-fg]quinolin-7-ium Iodide] |  |  | partial reversal | did not produce calcium flux | did not change | partly reduced
